# According to ChEMBL document CHEMBL1201862, “PubChem BioAssay data set” (2004):
#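 The compound was tested at five concentrations on cells cultured in 96-well plates, with a 48-hour exposure period. GI50: concentration for 50% inhibition of growth.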 Active and inactive are the calls of the source. Rule as the data show it: active = GI50 up to about 1.1 µM and inactive = higher.
# Tests used:
# Assay in all cases: inhibition of tumour cell growth, NCI panel, 48 h
# [1] = test system: 786-0
# [2] = test system: A498
# [3] = test system: A549
# [4] = test system: ACHN
# [5] = test system: CAKI-1
# [6] = test system: CCRF-CEM
# [7] = test system: COLO 205
# [8] = test system: DLD-1
# [9] = test system: DMS-114
# [10] = test system: DMS-273
# [11] = test system: EKVX
# [12] = test system: HCC 2998
# [13] = test system: HCT-116
# [14] = test system: HCT-15
# [15] = test system: HL-60
# [16] = test system: HOP-18
# [17] = test system: HOP-62
# [18] = test system: HOP-92
# [19] = test system: HT-29
# [20] = test system: IGROV-1
# [21] = test system: K562
# [22] = test system: KM-20L2
# [23] = test system: KM12
# [24] = test system: LOX IMVI
# [25] = test system: M14
# [26] = test system: M19-MEL
# [27] = test system: MOLT-4
# [28] = test system: Malme-3M
# [29] = test system: NCI-H226
# [30] = test system: NCI-H23
# [31] = test system: NCI-H460
# [32] = test system: NCI-H522
# [33] = test system: OVCAR-3
# [34] = test system: OVCAR-4
# [35] = test system: OVCAR-5
# [36] = test system: OVCAR-8
# [37] = test system: RPMI-8226
# [38] = test system: RXF 393
# [39] = test system: SF-268
# [40] = test system: SF-295
# [41] = test system: SF-539
# [42] = test system: SK-MEL-28
# [43] = test system: SK-MEL-2
# [44] = test system: SK-MEL-5
# [45] = test system: SK-OV-3
# [46] = test system: SN12C
# [47] = test system: SNB-19
# [48] = test system: SNB-75
# [49] = test system: SNB-78
# [50] = test system: SR
# [51] = test system: SW-620
# [52] = test system: TK-10
# [53] = test system: U-251
# [54] = test system: UACC-257
# [55] = test system: UACC-62
# [56] = test system: UO-31
# [57] = test system: XF498
# [58] = test system: LXFL 529
smiles,measurement,setting,value
Nc1c2ccccc2nc2nccnc12,GI50,[1],> 100 µM (inactive)
same,GI50,[2],> 100 µM (inactive)
same,GI50,[3],> 100 µM (inactive)
same,GI50,[4],> 100 µM (inactive)
same,GI50,[5],> 100 µM (inactive)
same,GI50,[6],> 100 µM (inactive)
same,GI50,[7],> 100 µM (inactive)
same,GI50,[8],> 100 µM (inactive)
same,GI50,[9],> 100 µM (inactive)
same,GI50,[10],> 100 µM (inactive)
same,GI50,[11],38.4 µM (inactive)
same,GI50,[12],> 100 µM (inactive)
same,GI50,[13],> 100 µM (inactive)
same,GI50,[14],> 100 µM
same,GI50,[15],> 100 µM (inactive)
same,GI50,[16],> 100 µM (inactive)
same,GI50,[17],> 100 µM (inactive)
same,GI50,[18],> 100 µM (inactive)
same,GI50,[19],> 100 µM (inactive)
same,GI50,[20],60.4 µM (inactive)
same,GI50,[21],> 100 µM (inactive)
same,GI50,[22],> 100 µM (inactive)
same,GI50,[23],> 100 µM (inactive)
same,GI50,[24],> 100 µM (inactive)
same,GI50,[25],> 100 µM (inactive)
same,GI50,[26],> 100 µM (inactive)
same,GI50,[27],> 100 µM (inactive)
same,GI50,[28],> 100 µM (inactive)
same,GI50,[29],> 100 µM (inactive)
same,GI50,[30],> 100 µM (inactive)
same,GI50,[31],> 100 µM (inactive)
same,GI50,[32],> 100 µM (inactive)
same,GI50,[33],> 100 µM (inactive)
same,GI50,[34],> 100 µM (inactive)
same,GI50,[35],> 100 µM (inactive)
same,GI50,[36],> 100 µM (inactive)
same,GI50,[37],> 100 µM (inactive)
same,GI50,[38],> 100 µM (inactive)
same,GI50,[39],> 100 µM (inactive)
same,GI50,[40],> 100 µM (inactive)
same,GI50,[41],> 100 µM (inactive)
same,GI50,[42],> 100 µM (inactive)
same,GI50,[43],> 100 µM (inactive)
same,GI50,[44],> 100 µM (inactive)
same,GI50,[45],> 100 µM (inactive)
same,GI50,[46],> 100 µM (inactive)
same,GI50,[47],> 100 µM (inactive)
same,GI50,[48],> 100 µM (inactive)
same,GI50,[49],> 100 µM (inactive)
same,GI50,[50],> 100 µM (inactive)
same,GI50,[51],> 100 µM (inactive)
same,GI50,[52],> 100 µM (inactive)
same,GI50,[53],> 100 µM (inactive)
same,GI50,[54],> 100 µM (inactive)
same,GI50,[55],> 100 µM (inactive)
same,GI50,[56],> 100 µM (inactive)
same,GI50,[57],> 100 µM (inactive)
C[Si](C)(C)/C(Br)=C\CCN1C(=O)CCC1O (stereo not drawn),GI50,[1],> 100 µM (inactive)
same,GI50,[2],> 100 µM (inactive)
same,GI50,[3],> 100 µM (inactive)
same,GI50,[4],> 100 µM (inactive)
same,GI50,[6],> 100 µM (inactive)
same,GI50,[7],> 100 µM (inactive)
same,GI50,[9],> 100 µM (inactive)
same,GI50,[10],> 100 µM (inactive)
same,GI50,[11],> 100 µM (inactive)
same,GI50,[13],> 100 µM (inactive)
same,GI50,[14],> 100 µM
same,GI50,[16],> 100 µM (inactive)
same,GI50,[18],91.4 µM (inactive)
same,GI50,[19],> 100 µM (inactive)
same,GI50,[20],> 100 µM (inactive)
same,GI50,[21],> 100 µM (inactive)
same,GI50,[22],> 100 µM (inactive)
same,GI50,[23],> 100 µM (inactive)
same,GI50,[24],> 100 µM (inactive)
same,GI50,[58],> 100 µM (inactive)
same,GI50,[25],> 100 µM (inactive)
same,GI50,[26],> 100 µM (inactive)
same,GI50,[27],> 100 µM (inactive)
same,GI50,[28],> 100 µM (inactive)
same,GI50,[29],> 100 µM (inactive)
same,GI50,[30],> 100 µM (inactive)
same,GI50,[31],> 100 µM (inactive)
same,GI50,[32],71.9 µM (inactive)
same,GI50,[33],> 100 µM (inactive)
same,GI50,[34],> 100 µM (inactive)
same,GI50,[35],> 100 µM (inactive)
same,GI50,[36],> 100 µM (inactive)
same,GI50,[37],> 100 µM (inactive)
same,GI50,[38],> 100 µM (inactive)
same,GI50,[39],> 100 µM (inactive)
same,GI50,[40],> 100 µM (inactive)
same,GI50,[41],> 100 µM (inactive)
same,GI50,[42],> 100 µM (inactive)
same,GI50,[43],> 100 µM (inactive)
same,GI50,[45],> 100 µM (inactive)
same,GI50,[46],> 100 µM (inactive)
same,GI50,[47],> 100 µM (inactive)
same,GI50,[48],34.2 µM (inactive)
same,GI50,[49],> 100 µM (inactive)
same,GI50,[51],> 100 µM (inactive)
same,GI50,[52],> 100 µM (inactive)
same,GI50,[53],> 100 µM (inactive)
same,GI50,[54],> 100 µM (inactive)
same,GI50,[55],> 100 µM (inactive)
same,GI50,[56],> 100 µM (inactive)
same,GI50,[57],> 100 µM (inactive)
